The values that follow come from article PMC3391414 (Journal of Agricultural and Food Chemistry, 2011).

Data set [1] has as its target T1, UGT1A6 (Homo sapiens, UniProt P19224).
T1 sequence (P19224 27-532): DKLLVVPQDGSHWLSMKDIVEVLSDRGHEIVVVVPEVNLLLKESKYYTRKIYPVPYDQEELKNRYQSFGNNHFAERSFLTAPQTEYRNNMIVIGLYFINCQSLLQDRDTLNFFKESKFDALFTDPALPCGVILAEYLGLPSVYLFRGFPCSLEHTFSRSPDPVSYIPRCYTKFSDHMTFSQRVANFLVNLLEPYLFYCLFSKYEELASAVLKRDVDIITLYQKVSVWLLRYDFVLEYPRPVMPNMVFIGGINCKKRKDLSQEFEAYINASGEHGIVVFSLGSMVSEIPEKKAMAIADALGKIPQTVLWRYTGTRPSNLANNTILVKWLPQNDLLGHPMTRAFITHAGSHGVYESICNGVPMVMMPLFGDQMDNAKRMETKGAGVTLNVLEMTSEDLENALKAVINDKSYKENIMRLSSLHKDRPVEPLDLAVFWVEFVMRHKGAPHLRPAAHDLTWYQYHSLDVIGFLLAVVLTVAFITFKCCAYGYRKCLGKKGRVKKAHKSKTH
The data set can be described thus: Glucuronidation by recombinant human UGT1A6. The settings on record: UGT1A6, substrate 10 μM.

In data set [2] the target is T2, UGT1A1 (Homo sapiens, UniProt P22309).
T2 sequence (P22309 26-533): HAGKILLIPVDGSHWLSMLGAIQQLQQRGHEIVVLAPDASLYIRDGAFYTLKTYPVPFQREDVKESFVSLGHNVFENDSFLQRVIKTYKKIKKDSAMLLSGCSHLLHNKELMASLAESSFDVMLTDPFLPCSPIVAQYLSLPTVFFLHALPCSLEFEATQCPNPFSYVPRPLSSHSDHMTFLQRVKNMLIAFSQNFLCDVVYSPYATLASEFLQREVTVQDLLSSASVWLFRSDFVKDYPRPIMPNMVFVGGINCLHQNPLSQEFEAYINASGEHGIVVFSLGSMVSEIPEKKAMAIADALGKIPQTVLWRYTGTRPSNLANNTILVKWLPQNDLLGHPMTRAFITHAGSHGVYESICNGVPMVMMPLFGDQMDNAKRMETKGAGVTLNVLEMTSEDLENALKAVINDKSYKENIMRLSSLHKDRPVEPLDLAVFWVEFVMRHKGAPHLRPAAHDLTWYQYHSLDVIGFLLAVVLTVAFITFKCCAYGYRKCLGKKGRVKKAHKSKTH
The data set can be described thus: Glucuronidation by recombinant human UGT1A1.

The target in data set [3] is T3, UGT2B7 (Homo sapiens, UniProt P16662).
T3 sequence (P16662 24-529): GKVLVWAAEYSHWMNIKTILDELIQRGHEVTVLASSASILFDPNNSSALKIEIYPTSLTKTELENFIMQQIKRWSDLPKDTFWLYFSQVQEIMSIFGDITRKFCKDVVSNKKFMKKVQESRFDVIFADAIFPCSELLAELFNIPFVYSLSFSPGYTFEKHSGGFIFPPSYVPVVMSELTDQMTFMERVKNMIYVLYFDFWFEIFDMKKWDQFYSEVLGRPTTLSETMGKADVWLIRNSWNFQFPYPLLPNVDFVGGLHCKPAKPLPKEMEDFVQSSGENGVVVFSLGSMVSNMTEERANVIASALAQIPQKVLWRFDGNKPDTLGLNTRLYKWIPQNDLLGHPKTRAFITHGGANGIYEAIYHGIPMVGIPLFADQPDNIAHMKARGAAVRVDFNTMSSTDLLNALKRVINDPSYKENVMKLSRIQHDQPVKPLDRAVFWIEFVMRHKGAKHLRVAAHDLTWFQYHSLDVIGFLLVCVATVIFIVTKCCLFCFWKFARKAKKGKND
The data set is described as follows: Glucuronidation by recombinant human UGT2B7. The settings on record: UGT2B7, substrate 10 μM.

The target of data set [4] is T4, UGT1A3 (Homo sapiens, UniProt P35503).
T4 sequence (P35503 29-534): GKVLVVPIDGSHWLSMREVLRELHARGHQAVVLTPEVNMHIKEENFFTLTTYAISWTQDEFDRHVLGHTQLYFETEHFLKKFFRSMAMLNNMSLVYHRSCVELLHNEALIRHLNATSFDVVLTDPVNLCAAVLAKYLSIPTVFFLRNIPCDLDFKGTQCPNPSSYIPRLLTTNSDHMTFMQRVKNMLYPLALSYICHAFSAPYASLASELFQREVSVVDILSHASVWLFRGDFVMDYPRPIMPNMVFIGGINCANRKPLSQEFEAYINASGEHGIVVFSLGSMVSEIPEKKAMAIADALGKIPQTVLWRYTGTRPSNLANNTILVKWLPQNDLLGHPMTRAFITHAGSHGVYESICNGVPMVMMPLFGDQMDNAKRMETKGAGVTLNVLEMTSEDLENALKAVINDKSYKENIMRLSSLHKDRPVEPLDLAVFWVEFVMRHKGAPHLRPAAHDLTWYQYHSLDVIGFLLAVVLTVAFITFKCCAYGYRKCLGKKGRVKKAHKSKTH
The data set can be described thus: Glucuronidation by recombinant human UGT1A3.

For data set [5], the target named is T5, UGT1A9 (Homo sapiens, UniProt O60656).
T5 sequence (O60656 26-530): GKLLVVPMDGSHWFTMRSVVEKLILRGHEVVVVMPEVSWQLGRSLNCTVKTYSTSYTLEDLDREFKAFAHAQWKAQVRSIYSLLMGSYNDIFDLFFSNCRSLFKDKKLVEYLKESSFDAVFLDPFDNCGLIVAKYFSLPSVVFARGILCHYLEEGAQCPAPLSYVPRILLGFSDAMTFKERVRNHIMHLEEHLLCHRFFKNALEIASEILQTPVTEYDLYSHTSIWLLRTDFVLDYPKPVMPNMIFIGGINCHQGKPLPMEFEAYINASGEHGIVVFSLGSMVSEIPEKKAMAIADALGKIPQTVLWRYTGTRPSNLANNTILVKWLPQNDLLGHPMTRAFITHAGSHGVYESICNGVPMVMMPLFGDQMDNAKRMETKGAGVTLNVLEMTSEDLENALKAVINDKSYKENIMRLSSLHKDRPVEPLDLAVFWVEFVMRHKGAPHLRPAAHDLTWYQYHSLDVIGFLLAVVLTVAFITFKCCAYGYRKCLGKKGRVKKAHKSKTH
The data set can be described thus: Glucuronidation by recombinant human UGT1A9.

In data set [6] the target is T6, UGT1A10 (Homo sapiens, UniProt Q9HAW8).
T6 sequence (Q9HAW8 26-530): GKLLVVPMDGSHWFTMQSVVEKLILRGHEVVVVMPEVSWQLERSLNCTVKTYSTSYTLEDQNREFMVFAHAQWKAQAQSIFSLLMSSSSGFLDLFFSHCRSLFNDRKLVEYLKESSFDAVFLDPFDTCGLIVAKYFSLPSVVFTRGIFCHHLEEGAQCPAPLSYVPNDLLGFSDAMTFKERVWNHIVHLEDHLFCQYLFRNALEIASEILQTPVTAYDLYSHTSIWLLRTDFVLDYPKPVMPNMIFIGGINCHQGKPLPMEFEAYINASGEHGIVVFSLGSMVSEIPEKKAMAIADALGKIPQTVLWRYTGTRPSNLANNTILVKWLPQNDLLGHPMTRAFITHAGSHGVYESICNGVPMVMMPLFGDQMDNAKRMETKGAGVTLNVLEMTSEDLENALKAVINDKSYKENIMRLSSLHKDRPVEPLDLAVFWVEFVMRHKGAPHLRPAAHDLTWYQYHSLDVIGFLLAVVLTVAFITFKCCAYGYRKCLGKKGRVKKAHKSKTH
The data set is described as follows: Glucuronidation by recombinant human UGT1A10. The settings on record: UGT1A10, substrate 10 μM.

Data set [7] has as its target T7, UGT1A8 (Homo sapiens, UniProt Q9HAW9).
T7 sequence (Q9HAW9 26-530): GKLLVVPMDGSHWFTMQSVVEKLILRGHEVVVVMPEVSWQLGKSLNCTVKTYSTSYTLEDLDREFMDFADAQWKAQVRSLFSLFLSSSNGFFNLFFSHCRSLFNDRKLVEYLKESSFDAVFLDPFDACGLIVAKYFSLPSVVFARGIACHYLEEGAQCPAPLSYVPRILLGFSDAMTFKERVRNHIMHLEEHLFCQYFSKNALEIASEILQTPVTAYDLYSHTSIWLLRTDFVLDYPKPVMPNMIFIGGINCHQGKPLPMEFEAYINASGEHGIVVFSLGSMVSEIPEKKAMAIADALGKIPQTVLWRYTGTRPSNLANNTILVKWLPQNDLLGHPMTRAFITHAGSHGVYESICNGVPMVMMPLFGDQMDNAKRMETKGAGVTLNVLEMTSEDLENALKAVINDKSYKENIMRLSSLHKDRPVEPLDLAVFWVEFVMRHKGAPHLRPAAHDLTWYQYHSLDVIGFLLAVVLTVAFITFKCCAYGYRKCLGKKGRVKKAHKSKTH
The data set is described as follows: Glucuronidation by recombinant human UGT1A8. The settings on record: UGT1A8, substrate 35 μM.

For data set [8] the following is noted: cited from earlier work.
The conditions of data set [9]: cited from earlier work. This is another data set of the same source.

“Also recorded” adds a separate entry of the source.

Regarding `O=c1c(O)c(-c2ccc(O)cc2)oc2cc(O)ccc12` [7,4'DHFnol, 3,7,4’-trihydroxyflavone], the Hydroxyl positions glucuronidated entry was “no position was glucuronidated” in data set [1]; “glucuronidated all the three hydroxyl groups” in [2] (UGT1A1, substrate 10 μM); “glucuronidated all the three hydroxyl groups” in data set [3]; “glucuronidated hydroxyl groups at C-3 and C-7 positions only” in [4] (UGT1A3, substrate 10 μM); “glucuronidated hydroxyl groups at C-3 and C-7 positions only” in data set [5] (UGT1A9, substrate 10 μM); “glucuronidated all the three hydroxyl groups” in [6]. Also, the “Degree of regiospecificity (major glucuronide in bracket)” value (shortened to “Degree … (major glucuronide in bracket)”) in data set [2] (UGT1A1, substrate 2.5 μM) is “No (3-O, 7-O)”; in data set [2] (UGT1A1, substrate 10 μM) it was “No (3-O, 7-O)”; in data set [2] (UGT1A1, substrate 10 μM, listed as 7,4’DHFnol) it was “no regiospecific preference for any position”; in [4] (UGT1A3, substrate 2.5 μM), “Dominant (7-O)”; in [4] (UGT1A3, substrate 10 μM), “Weak (7-O)”; in [4] (UGT1A3, substrate 10 μM, listed as 7,4’DHFnol) it was “weak regiospecific preference for 7-O over 3-O position”. Also, the “Degree … (major glucuronide in bracket)” value was “Moderate (3-O)” in [5] (UGT1A9, substrate 2.5 μM); “Moderate (3-O)” in data set [5] (UGT1A9, substrate 10 μM); “moderate” in data set [5] (UGT1A9, substrate 10 μM, listed as 7,4’DHFnol).
Consider `O=c1c(O)c(-c2ccccc2)oc2cc(O)ccc12` [7HFnol, 3,7-dihydroxyflavone], for which the Hydroxyl positions glucuronidated result in data set [1] was “no position was glucuronidated”. The “Degree … (major glucuronide in bracket)” value in data set [2] (UGT1A1, substrate 2.5 μM) is “weak regiospecificity for 7-O position; also recorded: weakly preferred the glucuronidation of 7-O position”; in data set [2] (UGT1A1, substrate 10 μM), “no preference; also recorded: did not show any regiospecific preference; also recorded: no regiospecificity; also recorded: No (3-O,7-O)”; in data set [4] (UGT1A3, substrate 2.5 μM), “Moderate (7-O)”; in [4] (UGT1A3, substrate 10 μM), “dominantly regiospecific by glucuronidating hydroxyl group only at C-7 position; also recorded: Dominant (7-O)”; in data set [5] (UGT1A9, substrate 2.5 μM) it was “moderate regiospecificity for 3-O position”; in data set [5] (UGT1A9, substrate 10 μM) it was “moderate regiospecificity for 3-O position”. The “Degree of regiospecificity (3-O vs 7-O)” value in [2] (UGT1A1, substrate 35 μM) was “no regiospecificity”; in data set [5] (UGT1A9, substrate 35 μM), “no regiospecificity”; in data set [7], “moderate regiospecificity for 3-O position”.
With `O=c1c(-c2ccc(O)cc2)coc2cc(O)cc(O)c12` [genistein], in data set [8] (intravenous administration of genistein), the “Cmax of 7-O-glucuronide relative to 4’-O-glucuronide” value is “four times higher”. The “Cmax of 7-O-G relative to 4’-O-glucuronide” value in data set [8] (per-oral administration of genistein) was 1.85 times.
As to `O=C(O)[C@H]1O[C@@H](Oc2cc(O)c3c(=O)c(O)c(-c4ccc(O)c(O)c4)oc3c2)[C@H](O)[C@@H](O)[C@@H]1O` [quercetin,7-O-G], the Antioxidative property entry in data set [9] is reported as “stronger antioxidative property than quercetin,3-O-G”.
